In patent US9682995B2, “Amino-substituted isothiazoles” (BAYER PHARMA AKTIENGESELLSCHAFT, priority 2013, dated 2017):

Legend:
Test in all cases: Kinase Profiling (KINOMEscan)
Assay type in all cases: binding
[1] = target: 456 kinases (of these 395 non-mutant kinases) (Homo sapiens, UniProt P36888); settings: 10 μM
[2] = target: 456 kinases (of these 395 non-mutant kinases) (Homo sapiens, UniProt Q16832); settings: DDR2; 10 μM
[3] = target: 456 kinases (of these 395 non-mutant kinases) (Homo sapiens, UniProt P51451); settings: BLK; 10 μM
[4] = target: 456 kinases (of these 395 non-mutant kinases) (Homo sapiens, UniProt P37023); settings: ACVRL1; 10 μM
[5] = target: 456 kinases (of these 395 non-mutant kinases) (Homo sapiens, UniProt Q8TD08); settings: ERK8; 10 μM
[6] = target: 456 kinases (of these 395 non-mutant kinases) (Homo sapiens, UniProt P41743); settings: PRKCI; 10 μM
[7] = target: 456 kinases (of these 395 non-mutant kinases) (Homo sapiens, UniProt Q9Y6R4); settings: MAP3K4; 10 μM
[8] = target: 456 kinases (of these 395 non-mutant kinases) (Homo sapiens, UniProt P54762); settings: EPHB1; 10 μM
[9] = target: 456 kinases (of these 395 non-mutant kinases) (Homo sapiens, UniProt Q8IVW4); settings: CDKL3; 10 μM
[10] = target: 456 kinases (of these 395 non-mutant kinases) (Homo sapiens, UniProt P12931); settings: SRC; 10 μM
[11] = target: 456 kinases (of these 395 non-mutant kinases) (Homo sapiens, UniProt Q9UQM7); settings: CAMK2A; 10 μM
[12] = target: 456 kinases (of these 395 non-mutant kinases) (Homo sapiens, UniProt Q13163); settings: MEK5; 10 μM
[13] = target: 456 kinases (of these 395 non-mutant kinases) (Homo sapiens, UniProt Q16566); settings: CAMK4; 10 μM
[14] = target: 456 kinases (of these 395 non-mutant kinases) (Homo sapiens, UniProt Q9UBE8); settings: NLK; 10 μM
[15] = target: 456 kinases (of these 395 non-mutant kinases) (Homo sapiens, UniProt Q00535); settings: CDK5; 10 μM
[16] = target: 456 kinases (of these 395 non-mutant kinases) (Homo sapiens, UniProt P51617); settings: IRAKI; 10 μM
[17] = target: 456 kinases (of these 395 non-mutant kinases) (Homo sapiens, UniProt Q13237); settings: PRKG2; 10 μM
[18] = target: 456 kinases (of these 395 non-mutant kinases) (Homo sapiens, UniProt P11309); settings: PIM1; 10 μM
[19] = target: 456 kinases (of these 395 non-mutant kinases) (Homo sapiens, UniProt P08581); settings: MET; 10 μM
[20] = target: 456 kinases (of these 395 non-mutant kinases) (Homo sapiens, UniProt Q9NYY3); settings: PLK2; 10 μM
[21] = target: 456 kinases (of these 395 non-mutant kinases) (Homo sapiens, UniProt P42685); settings: FRK; 10 μM
[22] = target: 456 kinases (of these 395 non-mutant kinases) (Homo sapiens, UniProt O95835); settings: LATS1; 10 μM
[23] = target: 456 kinases (of these 395 non-mutant kinases) (Homo sapiens, UniProt P29322); settings: EPHA8; 10 μM
[24] = target: 456 kinases (of these 395 non-mutant kinases) (Homo sapiens, UniProt P36888, K663Q); settings: FLT3(K663Q); 10 μM
[25] = target: 456 kinases (of these 395 non-mutant kinases) (Homo sapiens, UniProt P31152); settings: ERK4; 10 μM
[26] = target: 456 kinases (of these 395 non-mutant kinases) (Homo sapiens, UniProt P42336, Q546K); settings: PIK3CA(Q546K); 10 μM
[27] = target: 456 kinases (of these 395 non-mutant kinases) (Homo sapiens, UniProt Q9H0K1); settings: SIK2; 10 μM
[28] = target: 456 kinases (of these 395 non-mutant kinases) (Homo sapiens, UniProt O94921); settings: PFTK1; 10 μM
[29] = target: 456 kinases (of these 395 non-mutant kinases) (Homo sapiens, UniProt Q9UM73, C1156Y); settings: ALK(C1156Y); 10 μM
[30] = target: 456 kinases (of these 395 non-mutant kinases) (Homo sapiens, UniProt P33981); settings: TTK; 10 μM
[31] = target: 456 kinases (of these 395 non-mutant kinases) (Homo sapiens, UniProt Q14680); settings: MELK; 10 μM
[32] = target: 456 kinases (of these 395 non-mutant kinases) (Homo sapiens, UniProt P19525); settings: PRKR; 10 μM
Chain of 456 kinases (of these 395 non-mutant kinases) (Homo sapiens, UniProt P19525) (P19525 2-551 limits assumed, change not shown): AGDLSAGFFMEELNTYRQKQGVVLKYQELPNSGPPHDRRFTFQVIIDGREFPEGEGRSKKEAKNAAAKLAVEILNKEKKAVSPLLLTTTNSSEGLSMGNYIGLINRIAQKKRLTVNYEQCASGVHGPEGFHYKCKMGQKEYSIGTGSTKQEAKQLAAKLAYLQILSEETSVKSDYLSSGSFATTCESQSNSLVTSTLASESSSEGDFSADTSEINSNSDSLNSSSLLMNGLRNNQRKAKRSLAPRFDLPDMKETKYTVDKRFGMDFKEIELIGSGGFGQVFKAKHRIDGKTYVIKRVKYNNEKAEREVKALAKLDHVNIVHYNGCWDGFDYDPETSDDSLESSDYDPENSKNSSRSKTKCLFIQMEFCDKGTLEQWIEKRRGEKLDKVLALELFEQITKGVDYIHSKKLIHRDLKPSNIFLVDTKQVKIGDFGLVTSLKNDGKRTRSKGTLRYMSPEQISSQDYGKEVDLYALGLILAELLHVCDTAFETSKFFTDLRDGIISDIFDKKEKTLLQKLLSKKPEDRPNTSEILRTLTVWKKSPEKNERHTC

Chain of 456 kinases (of these 395 non-mutant kinases) (Homo sapiens, UniProt P51451) (P51451 2-505 limits assumed, change not shown): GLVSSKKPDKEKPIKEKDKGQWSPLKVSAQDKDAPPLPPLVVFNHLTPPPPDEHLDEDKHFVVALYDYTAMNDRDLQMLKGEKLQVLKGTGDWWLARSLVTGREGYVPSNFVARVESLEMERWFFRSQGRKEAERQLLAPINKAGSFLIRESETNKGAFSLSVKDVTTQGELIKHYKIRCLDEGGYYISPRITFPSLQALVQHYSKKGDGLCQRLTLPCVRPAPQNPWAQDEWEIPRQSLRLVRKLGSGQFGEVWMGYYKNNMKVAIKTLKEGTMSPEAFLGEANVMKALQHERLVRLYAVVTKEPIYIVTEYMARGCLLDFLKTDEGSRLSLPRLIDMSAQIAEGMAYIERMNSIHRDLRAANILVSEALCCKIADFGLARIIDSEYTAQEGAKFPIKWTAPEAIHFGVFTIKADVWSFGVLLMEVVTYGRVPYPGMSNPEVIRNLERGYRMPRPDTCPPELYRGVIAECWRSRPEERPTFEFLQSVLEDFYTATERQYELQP
Chain of 456 kinases (of these 395 non-mutant kinases) (Homo sapiens, UniProt P54762) (P54762 18-984 limits assumed, change not shown): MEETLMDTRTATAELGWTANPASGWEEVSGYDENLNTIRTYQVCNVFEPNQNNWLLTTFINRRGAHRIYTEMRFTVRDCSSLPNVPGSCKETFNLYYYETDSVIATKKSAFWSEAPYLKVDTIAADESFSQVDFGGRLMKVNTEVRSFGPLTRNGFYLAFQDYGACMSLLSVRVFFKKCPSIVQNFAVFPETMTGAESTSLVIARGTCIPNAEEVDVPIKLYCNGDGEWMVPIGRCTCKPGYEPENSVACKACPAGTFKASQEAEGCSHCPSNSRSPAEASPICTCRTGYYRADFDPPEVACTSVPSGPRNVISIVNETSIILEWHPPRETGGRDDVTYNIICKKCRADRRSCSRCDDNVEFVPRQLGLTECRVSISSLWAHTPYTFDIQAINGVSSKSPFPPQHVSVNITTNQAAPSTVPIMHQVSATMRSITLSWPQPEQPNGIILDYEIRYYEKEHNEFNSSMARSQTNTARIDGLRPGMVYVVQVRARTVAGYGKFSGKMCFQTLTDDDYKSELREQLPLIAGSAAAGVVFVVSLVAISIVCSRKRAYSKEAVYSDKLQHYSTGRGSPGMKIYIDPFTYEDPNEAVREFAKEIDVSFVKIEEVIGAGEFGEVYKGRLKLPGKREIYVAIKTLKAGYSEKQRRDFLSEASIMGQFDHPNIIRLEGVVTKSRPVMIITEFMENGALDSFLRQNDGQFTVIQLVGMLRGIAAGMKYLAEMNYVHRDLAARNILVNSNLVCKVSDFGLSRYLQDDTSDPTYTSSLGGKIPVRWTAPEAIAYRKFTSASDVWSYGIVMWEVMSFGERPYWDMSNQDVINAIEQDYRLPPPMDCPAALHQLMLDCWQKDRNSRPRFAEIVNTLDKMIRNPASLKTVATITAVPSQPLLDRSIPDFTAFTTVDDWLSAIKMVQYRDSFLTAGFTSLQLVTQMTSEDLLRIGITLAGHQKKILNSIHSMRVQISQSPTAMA
Chain of 456 kinases (of these 395 non-mutant kinases) (Homo sapiens, UniProt P29322) (P29322 28-1005 limits assumed, stated change not applied): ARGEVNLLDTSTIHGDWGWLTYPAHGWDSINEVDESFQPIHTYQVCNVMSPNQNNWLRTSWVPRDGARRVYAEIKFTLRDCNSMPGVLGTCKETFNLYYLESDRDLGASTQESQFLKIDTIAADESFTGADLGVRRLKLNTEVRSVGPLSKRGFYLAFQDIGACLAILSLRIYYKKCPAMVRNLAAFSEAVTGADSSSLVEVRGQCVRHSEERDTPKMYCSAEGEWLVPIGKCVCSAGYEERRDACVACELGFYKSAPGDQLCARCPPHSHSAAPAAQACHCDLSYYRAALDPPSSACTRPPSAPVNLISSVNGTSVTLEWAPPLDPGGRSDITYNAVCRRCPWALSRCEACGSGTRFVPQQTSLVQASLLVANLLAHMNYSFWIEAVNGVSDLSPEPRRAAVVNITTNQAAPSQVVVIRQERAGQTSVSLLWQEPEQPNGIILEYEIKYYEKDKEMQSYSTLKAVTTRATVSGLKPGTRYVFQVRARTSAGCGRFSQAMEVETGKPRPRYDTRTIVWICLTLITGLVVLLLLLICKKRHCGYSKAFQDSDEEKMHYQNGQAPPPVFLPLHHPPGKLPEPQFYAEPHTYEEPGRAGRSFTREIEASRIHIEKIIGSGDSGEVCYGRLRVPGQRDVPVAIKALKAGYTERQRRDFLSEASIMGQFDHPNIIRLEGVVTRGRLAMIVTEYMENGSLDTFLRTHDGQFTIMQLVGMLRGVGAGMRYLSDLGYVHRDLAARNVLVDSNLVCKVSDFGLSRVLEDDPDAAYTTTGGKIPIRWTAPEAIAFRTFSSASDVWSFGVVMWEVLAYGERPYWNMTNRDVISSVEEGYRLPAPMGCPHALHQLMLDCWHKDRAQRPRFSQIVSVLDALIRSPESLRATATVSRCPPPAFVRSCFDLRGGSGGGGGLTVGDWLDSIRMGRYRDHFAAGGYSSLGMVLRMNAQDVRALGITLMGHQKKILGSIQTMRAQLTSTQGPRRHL
Chain of 456 kinases (of these 395 non-mutant kinases) (Homo sapiens, UniProt P12931) (P12931 2-536 limits assumed, change not shown): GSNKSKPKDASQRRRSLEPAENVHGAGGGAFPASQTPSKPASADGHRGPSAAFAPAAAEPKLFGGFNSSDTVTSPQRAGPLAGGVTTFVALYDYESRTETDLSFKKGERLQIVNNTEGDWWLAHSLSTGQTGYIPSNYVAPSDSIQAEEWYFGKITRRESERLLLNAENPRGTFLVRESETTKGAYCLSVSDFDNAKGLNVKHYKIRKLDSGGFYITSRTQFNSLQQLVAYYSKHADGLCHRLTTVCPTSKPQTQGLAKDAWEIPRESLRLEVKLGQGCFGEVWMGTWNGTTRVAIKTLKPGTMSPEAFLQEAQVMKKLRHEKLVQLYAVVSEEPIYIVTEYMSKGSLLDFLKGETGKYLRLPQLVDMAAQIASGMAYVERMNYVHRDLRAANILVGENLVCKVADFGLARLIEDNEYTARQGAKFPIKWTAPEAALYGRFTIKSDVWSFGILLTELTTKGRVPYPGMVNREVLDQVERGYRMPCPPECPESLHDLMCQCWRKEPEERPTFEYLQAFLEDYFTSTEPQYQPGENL
Chain of 456 kinases (of these 395 non-mutant kinases) (Homo sapiens, UniProt Q16832) (Q16832 22-855 limits assumed, change not shown): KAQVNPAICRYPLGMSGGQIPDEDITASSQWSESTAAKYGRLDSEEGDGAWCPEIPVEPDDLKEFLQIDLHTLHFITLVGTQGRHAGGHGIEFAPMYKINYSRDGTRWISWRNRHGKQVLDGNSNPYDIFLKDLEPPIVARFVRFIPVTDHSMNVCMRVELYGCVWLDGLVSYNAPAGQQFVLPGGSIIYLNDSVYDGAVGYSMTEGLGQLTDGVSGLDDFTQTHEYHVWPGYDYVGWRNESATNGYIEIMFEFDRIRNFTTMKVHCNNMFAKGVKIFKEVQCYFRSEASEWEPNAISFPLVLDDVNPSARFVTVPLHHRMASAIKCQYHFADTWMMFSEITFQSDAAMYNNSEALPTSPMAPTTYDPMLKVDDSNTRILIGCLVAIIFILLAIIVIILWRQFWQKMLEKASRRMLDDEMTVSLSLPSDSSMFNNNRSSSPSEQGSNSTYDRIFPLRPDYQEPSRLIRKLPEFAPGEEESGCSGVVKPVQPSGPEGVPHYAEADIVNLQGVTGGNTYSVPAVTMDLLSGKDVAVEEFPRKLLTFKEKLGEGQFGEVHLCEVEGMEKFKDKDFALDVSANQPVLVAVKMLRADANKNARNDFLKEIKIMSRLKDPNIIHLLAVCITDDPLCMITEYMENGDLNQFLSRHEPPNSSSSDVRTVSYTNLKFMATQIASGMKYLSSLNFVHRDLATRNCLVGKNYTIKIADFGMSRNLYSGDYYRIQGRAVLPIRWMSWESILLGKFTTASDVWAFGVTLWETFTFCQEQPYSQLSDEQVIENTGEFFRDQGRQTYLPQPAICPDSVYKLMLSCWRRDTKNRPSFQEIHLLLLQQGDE
Chain of 456 kinases (of these 395 non-mutant kinases) (Homo sapiens, UniProt P37023) (P37023 22-503 limits assumed, change not shown): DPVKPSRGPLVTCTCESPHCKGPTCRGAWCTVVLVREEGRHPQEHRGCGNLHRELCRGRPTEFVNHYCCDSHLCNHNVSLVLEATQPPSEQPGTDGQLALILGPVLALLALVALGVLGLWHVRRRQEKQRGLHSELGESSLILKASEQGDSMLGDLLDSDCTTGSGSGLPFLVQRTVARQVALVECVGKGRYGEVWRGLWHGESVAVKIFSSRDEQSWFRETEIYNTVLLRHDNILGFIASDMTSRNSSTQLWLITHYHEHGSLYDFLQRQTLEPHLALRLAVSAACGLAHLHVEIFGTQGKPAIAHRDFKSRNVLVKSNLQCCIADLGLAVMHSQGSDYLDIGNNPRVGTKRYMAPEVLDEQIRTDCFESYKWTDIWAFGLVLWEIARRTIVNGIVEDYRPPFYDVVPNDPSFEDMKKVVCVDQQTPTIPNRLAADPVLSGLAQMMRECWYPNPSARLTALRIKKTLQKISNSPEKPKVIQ

## CCc1ccccc1NC(=O)c1c(C)nsc1Nc1cnc2cc(F)ccc2n1 [Example 20, N-(2-Ethylphenyl)-5-[(6-fluoroquinoxalin-2-yl)amino]-3-methyl-1,2-thiazole-4-carboxamide]
[1]; FLT3-autoinhibited
  % Ctrl @ 10 μM: 100 % Ctrl
[1]; FLT3
  % Ctrl @ 10 μM: 80 % Ctrl
[2]
  % Ctrl @ 10 μM: 100 % Ctrl
[3]
  % Ctrl @ 10 μM: 100 % Ctrl
[4]
  % Ctrl @ 10 μM: 100 % Ctrl
[5]
  % Ctrl @ 10 μM: 82 % Ctrl
[6]
  % Ctrl @ 10 μM: 100 % Ctrl
[7]
  % Ctrl @ 10 μM: 84 % Ctrl
[8]
  % Ctrl @ 10 μM: 96 % Ctrl
[9]
  % Ctrl @ 10 μM: 66 % Ctrl
[10]
  % Ctrl @ 10 μM: 100 % Ctrl
[11]
  % Ctrl @ 10 μM: 88 % Ctrl
[12]
  % Ctrl @ 10 μM: 100 % Ctrl
[13]
  % Ctrl @ 10 μM: 100 % Ctrl
[14]
  % Ctrl @ 10 μM: 100 % Ctrl
[15]
  % Ctrl @ 10 μM: 100 % Ctrl
[16]
  % Ctrl @ 10 μM: 100 % Ctrl
[17]
  % Ctrl @ 10 μM: 100 % Ctrl
[18]
  % Ctrl @ 10 μM: 100 % Ctrl
[19]
  % Ctrl @ 10 μM: 100 % Ctrl
[20]
  % Ctrl @ 10 μM: 90 % Ctrl
[21]
  % Ctrl @ 10 μM: 66 % Ctrl
[22]
  % Ctrl @ 10 μM: 100 % Ctrl
[23]
  % Ctrl @ 10 μM: 96 % Ctrl
[24]
  % Ctrl @ 10 μM: 75 % Ctrl
[25]
  % Ctrl @ 10 μM: 88 % Ctrl
[26]
  % Ctrl @ 10 μM: 66 % Ctrl
[27]
  % Ctrl @ 10 μM: 84 % Ctrl
[28]
  % Ctrl @ 10 μM: 93 % Ctrl
[29]
  % Ctrl @ 10 μM: 100 % Ctrl
[30]
  % Ctrl @ 10 μM: 72 % Ctrl
[31]
  % Ctrl @ 10 μM: 100 % Ctrl
[32]
  % Ctrl @ 10 μM: 100 % Ctrl
